ChEMBL document CHEMBL4265897, “Discovery of benzothiazole amides as potent antimycobacterial agents” (Bioorg Med Chem Lett, 2018)
≈ marks a conversion by molar mass, not a printed value.

Experiments:
Mycobacterium avium = experiment: Antimycobacterial activity against Mycobacterium avium 101 by CLSI method; assay type: functional
[1] = test system: Mycolicibacterium fortuitum; experiment: Antimycobacterial activity against Mycobacterium fortuitum 41 by CLSI method; assay type: functional
[2] = test system: Mycobacteroides abscessus; experiment: Antimycobacterial activity against Mycobacterium abscessus 103 by CLSI method; assay type: functional
[3] = test system: Mycobacteroides abscessus; experiment: Antimycobacterial activity against Mycobacterium abscessus 21 by CLSI method; assay type: functional
Mycobacteroides chelonae = experiment: Antimycobacterial activity against Mycobacterium chelonae 93 by CLSI method; assay type: functional
[4] = test system: Mycobacteroides abscessus; experiment: Antimycobacterial activity against Mycobacterium abscessus 79 by CLSI method; assay type: functional
[5] = test system: Mycobacteroides abscessus; experiment: Antimycobacterial activity against Mycobacterium abscessus 1 by CLSI method; assay type: functional
[6] = test system: Mycobacterium tuberculosis; experiment: Antimycobacterial activity against Mycobacterium tuberculosis H37Rv MC2 6206 by CLSI method; assay type: functional
[7] = test system: Mycobacteroides abscessus; experiment: Antimycobacterial activity against Mycobacterium massiliense 119 by CLSI method; assay type: functional, Mycobacterium abscessus subsp. massiliense
[8] = test system: Mycobacterium intracellulare; experiment: Antimycobacterial activity against Mycobacterium intracellulare 1956 by CLSI method; assay type: functional
[9] = test system: Mycolicibacterium peregrinum; experiment: Antimycobacterial activity against Mycobacterium peregrinum ATCC 700686 by CLSI method; assay type: functional
[10] = test system: Mycobacteroides abscessus; experiment: Antimycobacterial activity against Mycobacterium abscessus ATCC 19977 by CLSI method; assay type: functional

SMILES	MIC (Mycobacterium avium) [µg/mL]	MIC [1] [µg/mL]	MIC [2] [µg/mL]	MIC [3] [µg/mL]	MIC (Mycobacteroides chelonae) [µg/mL]	MIC [4] [µg/mL]	MIC [5] [µg/mL]	MIC [6] [µg/mL]	MIC [7] [µg/mL]	MIC [8] [µg/mL]	MIC [9] [µg/mL]	MIC [10] [µg/mL]
O=C(Nc1nc2ccc(OC(F)(F)F)cc2s1)C1CCCCCC1	> 64	> 64	> 64	> 64	32 (≈ 89.3 µM)	> 64	> 64	64 (≈ 179 µM)	> 64	> 64	> 64	–
CC1CC(C(=O)Nc2nc3cc(C(F)(F)F)ccc3s2)CC(C)(C)C1 (configuration not stated)	> 64	0.25 (≈ 0.675 µM)	0.5 (≈ 1.35 µM)	0.25 (≈ 0.675 µM)	0.25 (≈ 0.675 µM)	0.25 (≈ 0.675 µM)	–	≤ 0.12	0.5 (≈ 1.35 µM)	> 64	0.12 (≈ 0.324 µM)	–
CC1CC(C(=O)Nc2nc3cccc(F)c3s2)CC(C)(C)C1 (configuration not stated)	8 (≈ 25 µM)	0.12 (≈ 0.374 µM)	0.5 (≈ 1.56 µM)	0.25 (≈ 0.78 µM)	0.5 (≈ 1.56 µM)	0.25 (≈ 0.78 µM)	0.5 (≈ 1.56 µM)	1 (≈ 3.12 µM)	0.25 (≈ 0.78 µM)	16 (≈ 49.9 µM)	0.06 (≈ 0.187 µM)	–
CC1CC(C(=O)Nc2nc3ccccc3s2)CC(C)(C)C1 (configuration not stated)	8 (≈ 26.5 µM)	1 (≈ 3.31 µM)	1 (≈ 3.31 µM)	2 (≈ 6.61 µM)	1 (≈ 3.31 µM)	1 (≈ 3.31 µM)	2 (≈ 6.61 µM)	8 (≈ 26.5 µM)	2 (≈ 6.61 µM)	8 (≈ 26.5 µM)	0.5 (≈ 1.65 µM)	–
CC1(C(=O)Nc2nc3ccc(OC(F)(F)F)cc3s2)CCCCC1	8 (≈ 22.3 µM)	2 (≈ 5.58 µM)	0.12 (≈ 0.335 µM)	0.12 (≈ 0.335 µM)	0.25 (≈ 0.698 µM)	0.12 (≈ 0.335 µM)	–	4 (≈ 11.2 µM)	0.12 (≈ 0.335 µM)	4 (≈ 11.2 µM)	0.5 (≈ 1.4 µM)	–
CC1(C(=O)Nc2nc3ccc(OC(F)(F)F)cc3s2)CCCCCC1	8 (≈ 21.5 µM)	2 (≈ 5.37 µM)	0.25 (≈ 0.671 µM)	0.12 (≈ 0.322 µM)	0.25 (≈ 0.671 µM)	0.12 (≈ 0.322 µM)	0.25 (≈ 0.671 µM)	–	0.12 (≈ 0.322 µM)	4 (≈ 10.7 µM)	0.5 (≈ 1.34 µM)	–
CC1CC(C(=O)Nc2nc3ccc(OC(F)F)cc3s2)CC(C)(C)C1 (configuration not stated)	> 64	0.5 (≈ 1.36 µM)	0.5 (≈ 1.36 µM)	0.5 (≈ 1.36 µM)	0.25 (≈ 0.679 µM)	0.5 (≈ 1.36 µM)	1 (≈ 2.71 µM)	2 (≈ 5.43 µM)	0.5 (≈ 1.36 µM)	8 (≈ 21.7 µM)	0.12 (≈ 0.326 µM)	–
CC12CCCC(C(=O)Nc3nc4ccc(Br)cc4s3)(CCC1)C2	8 (≈ 20.3 µM)	0.5 (≈ 1.27 µM)	0.12 (≈ 0.305 µM)	0.12 (≈ 0.305 µM)	0.25 (≈ 0.636 µM)	0.12 (≈ 0.305 µM)	0.25 (≈ 0.636 µM)	–	0.12 (≈ 0.305 µM)	4 (≈ 10.2 µM)	0.12 (≈ 0.305 µM)	–
CC1CCC(C(=O)Nc2nc3ccc(C(F)(F)F)cc3s2)CC1 (configuration not stated)	> 64	–	–	–	–	–	–	–	–	> 64	–	64 (≈ 187 µM)
